{"source": "patent US7030134B2", "about": "“Pyrazolopyridinyl pyridine and pyrimidine therapeutic compounds” (SmithKline Beecham Corporation, priority 2001, dated 2006)", "note": "pIC50: −log10 of the molar value."}
{"tested_on": "HSV-1", "assay": "HSV-1 replication in infected Vero 76 cells, DNA hybridization capture assay", "format": "cell-based, herpes simplex virus 1", "settings": "Human alphaherpesvirus 1; HSV-1 (MOI=0.001) in Vero 76 cells, 40–48 hours incubation, HSV DNA hybridization chemiluminescence readout; read-out: IC50", "procedure": "Vero 76 cells were maintained in MEM with Earle's salts, L-glutamine, 8% FBS (Hyclone, A-1111-L) and 100 units/mL Penicillin-100 μg/mL Streptomycin. For assay conditions, FBS was reduced to 2%. Cells are seeded into 96-well tissue culture plates at a density of 5×10^4 cells/well after being incubated for 45 min at 37° C. in the presence of HSV-1 or HSV-2 (MOI=0.001). Test compounds are added to the wells and the plates are incubated at 37° C. for 40–48 hours. Cell lysates are prepared as follows: media was removed and replaced with 150 μL/well 0.2 N NaOH with 1% Igepal CA 630 or NP-40. Plates were incubated up to 14 days at room temperature in a humidified chamber to prevent evaporation.\nFor the detection probe, a gel-purified, digoxigenin-labeled, […] PCR fragment of the HSV UL-15 sequence was utilized. PCR conditions included 0.5 μM primers, 180 μM dTTP, 20 μM dUTP-digoxigenin (Boehringer Mannheim 1558706), 200 μM each of dATP, dCTP, and dGTP, 1×PCR Buffer II (Perkin Elmer), 2.5 mM MgCl2, 0.025 units/μL of AmpliTaq Gold polymerase (Perkin Elmer), and 5 ng of gel-purified HSV DNA per 100 μL. Extension conditions were 10 min at 95° C., followed by 30 cycles of 95° C. for 1 min, 55° C. for 30 sec, and 72° C. for 2 min. The amplification was completed with a 10-min incubation at 72° C. Primers were selected to amplify a 728 bp probe spanning a section of the HSV1 UL 15 open reading frame (nucleotides 249–977). Single-stranded transcripts were purified with Promega M13 Wizard kits. The final product was mixed 1:1 with a mixture of 6 M GuSCN, 100 mM EDTA and 200 μg/mL herring sperm DNA and stored at 4° C.\nThe capture DNA plasmid (HSV UL13 region in pUC) was linearized by cutting with Xba I, denatured for 15 min at 95° C. and diluted immediately into Reacti-Bind DNA Coating Solution (Pierce, 17250, diluted 1:1 with TE buffer, pH 8) at 1 ng/μL 75 μL/well were added to Corning (#3922 or 9690) white 96-well plates and incubated at room temperature for at least 4 hrs before washing twice with 300 μL/well 0.2×SSC/0.05% Tween-20 (SSC/T buffer). The plates were then incubated overnight at room temperature with 150 μL/well 0.2 N NaOH, 1% IGEPAL and 10 μg/mL herring sperm DNA.\nTwenty-seven (27) μL of cell lysate was combined with 45 μL of hybridization solution (final concentration:3M GuSCN, 50 mM EDTA, 100 μg/ml salmon sperm DNA, 5× Denhardt's solution, 0.25×APE, and 5 ng of the digoxigenin-labeled detection probe). APE is 1.5 M NH4-acetate, 0.15 M NH4H2 phosphate, and 5 mM EDTA adjusted to pH 6.0. Mineral oil (50 μL) was added to prevent evaporation. The hybridization plates were incubated at 95° C. for 10 minutes to denature the DNA, then incubated at 42° C. overnight. The wells were washed 6× with 300 μL/well SSC/T buffer then incubated with 75 μL/well anti-digoxigenin-HRP-conjugated antibody (Boehringer Mannheim 1207733, 1:5000 in TE) for 30 min at room temperature. The wells were washed 6× with 300 μL/well with PBS/0.05% Tween-20 before 75 μL/well SuperSignal LBA substrate (Pierce) was added. The plates were incubated at room temperature for 30 minutes and chemiluminescence was measured in a Wallac Victor reader.\nThe following results were obtained for HSV-1."}
{"smiles": "COc1ccc(-c2nn3c(NC4CCCC4)cc(Cl)cc3c2-c2ccnc(NC3CC3)n2)cc1", "note": "[Example 38, N-{4-[5-Chloro-7-(cyclopentylamino)-2-(4-methoxyphenyl)pyrazolo[1,5-a]pyridin-3-yl]-2-pyrimidinyl}-N-cyclopropylamine]", "pIC50": 6.47}
{"smiles": "OCc1ccc2c(-c3ccnc(NC4CCCC4)n3)c(-c3ccc(F)cc3)nn2c1NC1CCCC1", "note": "[Example 11, [7-(Cyclopentylamino)-3-[2-(cyclopentylamino)-4-pyrimidinyl]-2-(4-fluorophenyl)pyrazolo[1,5-a]pyridin-6-yl]methanol]", "pIC50": 6.01}
{"smiles": "O=C(NO)c1ccc2c(-c3ccnc(NC4CCCC4)n3)c(-c3ccc(F)cc3)nn2c1NC1CCCC1", "note": "[Example 7, 7-(Cyclopentylamino)-3-[2-(cyclopentylamino)-4-pyrimidinyl]-2-(4-fluorophenyl)-N-hydroxypyrazolo[1,5-a]pyridine-6-carboxamide]", "pIC50": 6.00}
{"smiles": "COc1ccc(-c2nn3c(NC4CCCC4)cc(Cl)cc3c2-c2ccnc([S+](C)[O-])n2)cc1", "note": "(centres unmarked) [Example 37, N-{5-Chloro-2-(4-methoxyphenyl)-3-[2-(methylsulfinyl)-4-pyrimidinyl]pyrazolo[1,5-a]pyridin-7-yl}-N-cyclopentylamine]", "pIC50": 5.22}
{"smiles": "Fc1ccc(-c2nn3c(N4CCOCC4)cc(Cl)cc3c2-c2ccnc(NC3CCCC3)n2)cc1", "note": "[Example 25, 4-[5-Chloro-2-(4-fluorophenyl)-7-(4-morpholinyl)pyrazolo[1,5-a]pyridin-3-yl]-N-cyclopentyl-2-pyrimidinamine]", "pIC50": 6.72}
{"smiles": "CN1CCN(c2cc(Cl)cc3c(-c4ccnc(NC5CCCC5)n4)c(-c4ccc(F)cc4)nn23)CC1", "note": "[Example 23, 4-[5-Chloro-2-(4-fluorophenyl)-7-(4-methyl-1-piperazinyl)pyrazolo[1,5-a]pyridin-3-yl]-N-cyclopentyl-2-pyrimidinamine]", "pIC50": 6.30}
{"smiles": "Oc1ccc(-c2nn3c(NC4CCCC4)cc(Cl)cc3c2-c2ccnc(NC3CCCC3)n2)cc1", "note": "[Example 33, 4-[5-Chloro-3-[2-(cyclopentylamino)-4-pyrimidinyl]-7-(cyclopentylamino)pyrazolo[1,5-a]pyridin-2-yl]phenol]", "pIC50": 6.10}
{"smiles": "O=C(c1ccc2c(-c3ccnc(NC4CCCC4)n3)c(-c3ccc(F)cc3)nn2c1NC1CCCC1)N1CCCC1", "note": "[Example 5, N-Cyclopentyl-3-[2-(cyclopentylamino)-4-pyrimidinyl]-2-(4-fluorophenyl)-6-(1-pyrrolidinylcarbonyl)pyrazolo[1,5-a]pyridin-7-amine]", "pIC50": 5.39}
{"smiles": "Fc1ccc(-c2nn3c(Cl)cc(NC4CCCC4)cc3c2-c2ccnc(NC3CCCC3)n2)cc1", "note": "[Example 41, 7-Chloro-N-cyclopentyl-3-[2-(cyclopentylamino)pyrimidin-4-yl]-2-(4-fluorophenyl)pyrazolo[1,5-a]pyridin-5-amine]", "pIC50": 5.89}
{"smiles": "O=C(NCCN1CCOCC1)c1ccc2c(-c3ccnc(NC4CCCC4)n3)c(-c3ccc(F)cc3)nn2c1NC1CCCC1", "note": "[Example 8, 7-(Cyclopentylamino)-3-[2-(cyclopentylamino)-4-pyrimidinyl]-2-(4-fluorophenyl)-N-[2-(4-morpholinyl)ethyl]pyrazolo[1,5-a]pyridine-6-carboxamide]", "pIC50": 5.30}
{"smiles": "COc1ccc(-c2nn3c(Cl)cc(Cl)cc3c2-c2ccnc(NC3CCCC3)n2)cc1", "note": "[Example 17, N-Cyclopentyl-4-[5,7-dichloro-2-(4-methoxyphenyl)pyrazolo[1,5-a]pyridin-3-yl]-2-pyrimidinamine]", "pIC50": 5.28}
{"smiles": "Clc1cccc(-c2nn3c(Cl)cc(Cl)cc3c2-c2ccnc(NC3CCCC3)n2)c1", "note": "[Example 28, N-cyclopentyl-4-[5,7-dichloro-2-(3-chlorophenyl)pyrazolo[1,5-a]pyridin-3-yl]-2-pyrimidinamine]", "pIC50": 5.46}
{"smiles": "Cc1cccc(-c2nn3c(NC4CC4)cc(Cl)cc3c2-c2ccnc(NC3CCCC3)n2)c1", "note": "[Example 20, 5-Chloro-3-[2-(cyclopentylamino)pyrimidin-4-yl]-N-cyclopropyl-2-(3-methylphenyl)pyrazolo[1,5-a]pyridin-7-amine]", "pIC50": 6.30}
{"smiles": "COCCOc1cc(NC2CCCC2)n2nc(-c3ccc(F)cc3)c(-c3ccnc(NC4CCCC4)n3)c2c1", "note": "[Example 46, N-Cyclopentyl-3-[2-(cyclopentylamino)-4-pyrimidinyl]-2-(4-fluorophenyl)-5-(2-methoxyethoxy)pyrazolo[1,5-a]pyridin-7-amine]", "pIC50": 6.89}
{"smiles": "CC(C)Nc1cc(NC(C)C)n2nc(-c3ccc(F)cc3)c(-c3ccnc(NC4CCCC4)n3)c2c1", "note": "[Example 16, 3-[2-(Cyclopentylamino)-4-pyrimidinyl]-2-(4-fluorophenyl)-N^5,N^7-diisopropylpyrazolo[1,5-a]pyridine-5,7-diamine]", "pIC50": 6.26}
{"smiles": "Fc1ccc(-c2nn3c(N4CCCCC4)cc(Cl)cc3c2-c2ccnc(NC3CCCC3)n2)cc1", "note": "[Example 24, 4-[5-Chloro-2-(4-fluorophenyl)-7-(1-piperidinyl)pyrazolo[1,5-a]pyridin-3-yl]-N-cyclopentyl-2-pyrimidinamine]", "pIC50": 6.92}
{"smiles": "O=C(O)c1ccc2c(-c3ccnc(NC4CCCC4)n3)c(-c3ccc(F)cc3)nn2c1NC1CCCC1", "note": "[Example 4, 7-(Cyclopentylamino)-3-[2-(cyclopentylamino)-4-pyrimidinyl]-2-(4-fluorophenyl)pyrazolo[1,5-a]pyridine-6-carboxylic acid]", "pIC50": 6.30}
{"smiles": "Fc1ccc(-c2nn3c(NC4CC4)cc(Cl)cc3c2-c2ccnc(NC3CC3)n2)cc1", "note": "[Example 27, 5-Chloro-N-cyclopropyl-3-[2-(cyclopropylamino)pyrimidin-4-yl]-2-(4-fluorophenyl)pyrazolo[1,5-a]pyridin-7-amine]", "pIC50": 5.80}
{"smiles": "Fc1ccc(-c2nn3c(NC4CC4)cc(Cl)cc3c2-c2ccnc(NC3CCCC3)n2)cc1", "note": "[Example 22, 5-Chloro-3-[2-(cyclopentylamino)-4-pyrimidinyl]-N-cyclopropyl-2-(4-fluorophenyl)pyrazolo[1,5-a]pyridin-7-amine]", "pIC50": 6.70}
{"smiles": "Clc1cc(NC2CC2)n2nc(-c3ccc(OCC4CC4)cc3)c(-c3ccnc(NC4CCCC4)n3)c2c1", "note": "[Example 32, 5-Chloro-3-[2-(cyclopentylamino)-4-pyrimidinyl]-N-cyclopropyl-2-[4-(cyclopropylmethoxy)phenyl]pyrazolo[1,5-a]pyridin-7-amine]", "pIC50": 6.10}
{"smiles": "O=C(NC(CO)CO)c1ccc2c(-c3ccnc(NC4CCCC4)n3)c(-c3ccc(F)cc3)nn2c1NC1CCCC1", "note": "[Example 10, 7-(Cyclopentylamino)-3-[2-(cyclopentylamino)-4-pyrimidinyl]-2-(4-fluorophenyl)-N-[2-hydroxy-1-(hydroxymethyl)ethyl]pyrazolo[1,5-a]pyridine-6-carboxamide]", "pIC50": 5.38}
{"smiles": "Fc1ccc(-c2nn3c(NC4CCCC4)c(Cl)ccc3c2-c2ccnc(NC3CCCC3)n2)cc1", "note": "[Example 44, 6-Chloro-N-cyclopentyl-3-[2-(cyclopentylamino)pyrimidin-4-yl]-2-(4-fluorophenyl)pyrazolo[1,5-a]pyridin-7-amine]", "pIC50": 6.05}
{"smiles": "Fc1ccc(-c2nn3c(NC4CCCC4)c(C(F)(F)F)ccc3c2-c2ccnc(NC3CCCC3)n2)cc1", "note": "[Example 2, N-Cyclopentyl-3-[2-(cyclopentylamino)-4-pyrimidinyl]-2-(4-fluorophenyl)-6-(trifluoromethyl)pyrazolo[1,5-a]pyridin-7-amine]", "pIC50": 5.48}
